Source: BindingDB's records for doi:10.1016/s0960-894x(03)00742-x (Keio University, 2003)

Target: alpha-L-fucosidase (Bos taurus)
Assay: Inhibitory activity against alpha-Fucosidase in bovine kidney

| Structure (SMILES) | IC50 |
| --- | --- |
| C[C@@H]1CC(NCCc2ccccc2)[C@@H](O)[C@@H](O)[C@@H]1O (some centres not stated) | 7.5 µM |
| CCCCCCCCCCCCN[C@H]1CC(C)[C@@H](O)C(O)[C@@H]1O (stereo partly drawn) [(1R,3R,4S)-4-Dodecylamino-6-methyl-cyclohexane-1,2,3-triol] | 1.2 µM |
